Results published in PMC4706532, “Diarylthiophenes as inhibitors of the pore-forming protein perforin” (Bioorganic & Medicinal Chemistry Letters, 2016).
Values after ≈ are worked out from the molar mass of the structure shown.

Key:
[1] = Plasma stability, human plasma; assay type: in vitro ADME; settings: % parent remaining at 24 h, 37 °C
Procedure: (§1) Preliminary stability studies were carried out by incubation in human or mouse plasma at 37 °C with the percentage parent remaining measured at 24 h (Table 2). […] In mouse plasma the ratio of open to closed is 50:50%, while in human plasma this shifts to 90:10 due to the strong affinity of human serum albumin for the ring-opened form.[20] It is likely that the same phenomenon is operating in the present case and while not necessarily an issue for mouse studies, will need to be addressed in future work.
(§2) Incubation method - Mouse (CD-1, male) and human (pooled) plasma pH was adjusted to 7.4 with either 1M phosphoric acid or sodium hydroxide. Plasma was spiked with 100 uM of test compounds and divided into two parts; one part was immediately transferred to -80 °C (control), and the second part was incubated at 37 °C at 24 h.
(§3) At the end of the study duration, samples were transferred to -80 °C until ready to analyse by HPLC-DAD. On the day of analysis, control and incubated samples were thawed on wet ice and mixed.
(§4) Sample treatment for HPLC - 20 uL of samples were mixed with 80 uL (1:4 v/v) ice cold acetonitrile to precipitate the plasma proteins, centrifuged at 13,000 rpm for 5 min to obtain the clear supernatant. The supernatant was diluted with 0.01% formic acid– water (1:2 v/v) and 50 uL was injected onto the HPLC system (Agilent).
(§5) Calculation: The % loss was calculated based on peak area using the following formula: (peak area time “0”- peak area time “24h”)/peak area time “0” multiplied by 100. % Remaining = 100 - % loss.

Solubility in water = settings: water
[2] = system: perforin delivered by KHYG-1 NK cells; assay: KHYG-1 cytotoxicity assay: lysis of K562 target cells by KHYG-1 NK cells (51Cr release); assay type: cell-based, human; settings: for inhibition at 20 µM: Homo sapiens, KHYG-1 NK, read-out: KHYG-1 inhibition (% at 20 μM), compound 20 μM; for Activity against perforin delivered by whole KHYG-1 NK cells (in words): whole human NK cells, K562 targets
Procedure: (§6) The compounds were then evaluated for their ability to block the effect of perforin delivered by whole KHYG-1 NK cells (Table 2). Employing whole NK cells is a more rigorous model of conditions in vivo than the use of isolated recombinant protein since effector cell identification of the labelled target cell and formation of an immune synapse are required for perforin release. […] After co-incubation of inhibitor with KHYG-1 NK cells in medium for 30 min at room temperature, ^51Cr-labelled K562 leukaemia target cells were added and cell lysis evaluated after 4 h incubation at 37 °C by measuring ^51Cr release. […] Viable and dead cells were counted and percent viability calculated based on total cell count (for further details see Supplementary data). […] For the purposes of this work, compounds are classified as toxic if NK cell viability falls below 70%. This is due to the importance of CTLs and NK cells in the overall immunological response which means that it is essential that any pharmacological intervention allows rapid recovery of these cytotoxic effector cells for normal immunological function.
KHYG-1 cells were washed and re-suspended in RPMI + 0.1% BSA at 4 × 10^5 cells/mL, and an amount of 50 μL of KHYG-1 cells was dispensed to each well of a 96-well V-bottom plate. RPMI (50 μL) + 0.1% BSA or 10% (final concentration) of serum was added to each well. Then test compounds were added to KHYG-1 cells at various concentrations up to 20 μM and incubated at room temperature for […]. 1 × 10^6 K562 target cells were labelled with 75 μCi ^51Cr in 200 μL of RPMI for 90 min at 37 °C. Cells were washed as described above and re-suspended in 5 mL of RPMI + 0.1% BSA. An amount of 50 μL of ^51Cr labelled K562 leukaemia target cells was added to each well of the KHYG-1 plate (effector/target 2:1) and incubated at 37 °C for 4 h. ^51Cr release was assayed using a Skatron harvesting press and radioactivity estimated on a Wallac Wizard 1470 automatic γ counter (Turku, Finland). The percentage of specific cytotoxicity was calculated using the following formula:
% specific lysis = […]
(maximum release - spontaneous release)
and expressed as the mean of triplicate assays ± standard error of the mean.

[3] = Toxicity to KHYG-1 NK cells (Trypan blue exclusion); settings: human
Procedure: as §6
The toxicity assay was carried out in exactly the same manner as the killing assay above, but instead of adding the labelled K562 target cells, 100 μL of RPMI 0.1% BSA was added. Cells were incubated for 4 h at 37 °C and then washed ×3 in RPMI + 0.1% BSA. Cells were then re-suspended in 200 μL of complete medium and incubated for 18−24 h at 37 °C. Trypan blue was added to each well. Viable (clear) cells and total (clear + blue) cells were counted, and the percentage of viable cells was calculated compared to DMSO treated cell control (% viability).

[4] = Plasma stability, mouse plasma; assay type: in vitro ADME; settings: % parent remaining at 24 h, 37 °C
Procedure: as §1, §2, §3, §4, §5

perforin = system: perforin; set-up: method as in earlier work; settings: compound concentration 100 µM; cited from earlier work
recombinant perforin = molecular target: T1, recombinant perforin (Mus musculus, UniProt P10820); set-up: method as in PMID 22244072; settings: 2 vs HTS hit 1; cited from earlier work
T1 sequence (P10820 21-554): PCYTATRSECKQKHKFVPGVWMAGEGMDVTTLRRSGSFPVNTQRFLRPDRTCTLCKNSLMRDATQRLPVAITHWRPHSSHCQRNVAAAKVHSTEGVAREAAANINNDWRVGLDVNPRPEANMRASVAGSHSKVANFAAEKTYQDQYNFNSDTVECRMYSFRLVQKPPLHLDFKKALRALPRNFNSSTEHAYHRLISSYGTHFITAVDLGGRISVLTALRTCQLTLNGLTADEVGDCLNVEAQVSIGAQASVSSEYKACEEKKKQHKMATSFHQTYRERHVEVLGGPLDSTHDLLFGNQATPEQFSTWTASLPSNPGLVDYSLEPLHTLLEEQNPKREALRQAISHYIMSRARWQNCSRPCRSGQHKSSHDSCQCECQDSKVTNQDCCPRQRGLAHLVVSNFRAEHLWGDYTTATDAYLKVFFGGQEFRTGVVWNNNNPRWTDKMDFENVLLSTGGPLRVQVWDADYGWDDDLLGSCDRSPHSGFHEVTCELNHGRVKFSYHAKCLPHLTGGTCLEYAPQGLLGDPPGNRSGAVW

[5] = perforin-induced lysis of K562 target cells co-incubated with KHYG-1 human NK cells, vs untreated control

| SMILES | Plasma stability (% at 24 h) Human [1] [%] | solubility (Solubility in water) [µg/mL] | inhibition at 20 µM [2, 5] [%] | Activity against perforin delivered by whole KHYG-1 NK cells (in words) [2] | viability at 24 h, 20 µM [3] [%] | Plasma stability (% at 24 h) Mouse [4] [%] | KHYG-1 inhibition (% at 20 μM) ([2]; compound 20 μM, perforin-induced lysis of K562 target cells co-incubated with KHYG-1 human NK cells, vs untreated control, 20 µM) [%] | Inhibition of perforin-mediated lysis of SRBC (in words) (perforin) | Fold improvement in inhibition of isolated perforin protein function over 1 (recombinant perforin) [fold] |
| --- | --- | --- | --- | --- | --- | --- | --- | --- | --- |
| NC(=O)c1ccc(-c2ccc(-c3ccc4c(c3)COC4=O)s2)cn1 [Compound 67] | 39 | 0.204 (≈ 0.606 µM) | 80 | excellent activity | 82 | 66 |  |  |  |
| NC(=O)c1ccc(-c2ccc(-c3ccc4c(c3)COC4=O)s2)cc1O [Compound 48] | 49 | 0.023 (≈ 0.0655 µM) | 20 | poor or no activity | 92 | 75 |  |  |  |
| NC(=O)c1ccc(-c2ccc(-c3ccc4c(c3)COC4=O)s2)cc1 [Compound 23] | 46 |  | 60 | excellent activity | 90 | 75 | 63 |  |  |
| O=C1NC(=S)N/C1=C/c1ccc(-c2ccc3c(c2)COC3=O)o1 [Compound 1] |  |  |  |  |  |  |  | reproducibly inhibit |  |
| O=C1NC(=S)N/C1=C/c1ccc(-c2ccc3c(c2)COC3=O)s1 [Compound 2] |  |  |  |  |  |  |  |  | ~8 |
